Results published in patent publication US6355799B1, “Substituted benzene compounds, process for their preparation, and herbicidal and defoliant compositions containing them” (ISK Americas Incorporated, priority 1997, dated 2002).

Legend:
Type in all cases: in vivo
[1] = tested on: field corn (Zea mays L., var. Dekalb 535, CORN); assay: Pre-emerge test, crop safety; details: pre-emerge, 14 days after application, scale 0-100
How it was run: (§1)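 Fourteen days after spraying, crop and weed injury was graded visually from 0, no effect, to 100, every plant dead. Test substances were dissolved in acetone and applied at 15–1000 g ai/ha with a flat-fan nozzle. Application was either pre-emergence, one day after sowing, or post-emergence at the 2–3 leaf stage.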

[2] = tested on: upland rice (Oryza sp., var. Tebonnet, RICE); assay: Pre-emerge test, crop safety; details: pre-emerge, 14 days after application, scale 0-100
How it was run: as §1

[3] = tested on: green foxtail (Setaria viridis, SETVI); assay: Pre-emerge test, greenhouse herbicide activity screening; details: pre-emerge, 14 days after application, scale 0-100
How it was run: (§2)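 Sandy loam pots; pre-emerge: sown 1 d pre-spray, surface-watered after, then bottom-watered. Post-emerge: sown 8–21 d before, 2–3 leaf stage, + 0.25% v/v NIS, bottom-watered. Acetone, 187 l/ha track spray, 15–1000 g ai/ha. 0–100 injury score, day 14.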

[4] = tested on: johnsongrass (Sorghum halepense, SORHA); assay: as above; details: pre-emerge, 14 days after application, scale 0-100
How it was run: as §2

[5] = tested on: sicklepod (Cassia obtusifolia, CASOB); assay: as above; details: pre-emerge, 14 days after application, scale 0-100
How it was run: as §2

[6] = tested on: velvetleaf (Abutilon theophrasti, ABUTH); assay: as above; details: pre-emerge, 14 days after application, scale 0-100
How it was run: as §2

[7] = tested on: lambsquarters (Chenopodium album, CHEAL); assay: as above; details: pre-emerge, 14 days after application, scale 0-100
How it was run: as §2

[8] = tested on: barnyardgrass (Echinochloa crus-galli, ECHCG); assay: as above; details: pre-emerge, 14 days after application, scale 0-100
How it was run: as §2

[9] = tested on: large crabgrass (Digitaria sanguinalis, DIGSA); assay: as above; details: pre-emerge, 14 days after application, scale 0-100
How it was run: as §2

[10] = tested on: ivyleaf morningglory (Ipomoea hederacea, IPOHE); assay: as above; details: pre-emerge, 14 days after application, scale 0-100
How it was run: as §2

[11] = tested on: green foxtail (Setaria viridis, SETVI); assay: Post-emerge test, greenhouse herbicide activity screening; details: post-emerge, 14 days after application, rating scale 0-100
How it was run: (§3)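 Plants grown in 10 cm pots of sandy loam mix received acetone-dissolved compounds through a moving flat-fan nozzle. Doses ranged from 15 to 1000 g ai/ha. Pre-emerge pots were seeded one day earlier, post-emerge pots 8–21 days earlier. Fourteen days on, each pot was graded 0–100 for damage.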

[12] = tested on: sicklepod (Cassia obtusifolia, CASOB); assay: as above; details: post-emerge, 14 days after application, rating scale 0-100
How it was run: as §3

[13] = tested on: velvetleaf (Abutilon theophrasti, ABUTH); assay: as above; details: post-emerge, 14 days after application, rating scale 0-100
How it was run: as §3

[14] = tested on: redroot pigweed (Amaranthus retroflexus, AMARE); assay: as above; details: post-emerge, 14 days after application, rating scale 0-100
How it was run: as §3

[15] = tested on: lambsquarters (Chenopodium album, CHEAL); assay: as above; details: post-emerge, 14 days after application, rating scale 0-100
How it was run: as §3

[16] = tested on: barnyardgrass (Echinochloa crus-galli, ECHCG); assay: as above; details: post-emerge, 14 days after application, rating scale 0-100
How it was run: as §3

[17] = tested on: large crabgrass (Digitaria sanguinalis, DIGSA); assay: as above; details: post-emerge, 14 days after application, rating scale 0-100
How it was run: as §3

[18] = tested on: ivyleaf morningglory (Ipomoea hederacea, IPOHE); assay: as above; details: post-emerge, 14 days after application, rating scale 0-100
How it was run: as §3

[19] = tested on: redroot pigweed (Amaranthus retroflexus, AMARE); assay: Pre-emerge test, greenhouse herbicide activity screening; details: pre-emerge, 14 days after application, scale 0-100
How it was run: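 Herbicidal damage is scored 0 (none) to 100 (complete plant death) two weeks after a simulated field spray. Rates span 15–1000 g ai/ha, delivered in acetone at 187 l/ha. For post-emergence treatments, plants have 2–3 leaves and the spray carries 0.25% v/v non-ionic surfactant.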

[20] = tested on: field corn (Zea mays L., var. Dekalb 535, CORN); assay: Post-emerge test, crop safety; details: post-emerge, 14 days after application, rating scale 0-100
How it was run: as §2

[21] = tested on: upland rice (Oryza sp., var. Tebonnet, RICE); assay: Post-emerge test, crop safety; details: post-emerge, 14 days after application, rating scale 0-100
How it was run: as §2

## Cn1c(C(F)(F)F)cc(=O)n(-c2ccc(Cl)cc2NC(=O)C=Cc2ccccc2)c1=O [2-137]
[1]; 63 g ai/ha
  phytotoxicity rating CORN (crop damage): 0
[1]; 250 g ai/ha
  phytotoxicity rating CORN (crop damage): 10
[2]; 63 g ai/ha
  phytotoxicity rating RICE (crop damage): 20
[2]; 250 g ai/ha
  phytotoxicity rating RICE (crop damage): 50
[3]; 63 g ai/ha
  phytotoxicity rating SETVI: 30
[3]; 250 g ai/ha
  phytotoxicity rating SETVI: 60
[4]; 63 g ai/ha
  phytotoxicity rating SORHA: 0
[4]; 250 g ai/ha
  phytotoxicity rating SORHA: 70
[5]; 63 g ai/ha
  phytotoxicity rating CASOB: 50
[5]; 250 g ai/ha
  phytotoxicity rating CASOB: 50
[6]; 63 g ai/ha
  phytotoxicity rating ABUTH: 80
[6]; 250 g ai/ha
  phytotoxicity rating ABUTH: 100
[7]; 63 g ai/ha
  phytotoxicity rating CHEAL: 100
[7]; 250 g ai/ha
  phytotoxicity rating CHEAL: 100
[8]; 63 g ai/ha
  phytotoxicity rating ECHCG: 10
[8]; 250 g ai/ha
  phytotoxicity rating ECHCG: 50
[9]; 63 g ai/ha
  phytotoxicity rating DIGSA: 50
[9]; 250 g ai/ha
  phytotoxicity rating DIGSA: 100
[10]; 63 g ai/ha
  phytotoxicity rating IPOHE: 30
[10]; 250 g ai/ha
  phytotoxicity rating IPOHE: 30
[11]; 63 g ai/ha
  SETVI phytotoxicity rating: 10
[11]; 250 g ai/ha
  SETVI phytotoxicity rating: 30
[12]; 63 g ai/ha
  CASOB phytotoxicity rating: 100
[12]; 250 g ai/ha
  CASOB phytotoxicity rating: 90
[13]; 63 g ai/ha
  ABUTH phytotoxicity rating: 100
[13]; 250 g ai/ha
  ABUTH phytotoxicity rating: 100
[14]; 63 g ai/ha
  AMARE phytotoxicity rating: 100
[14]; 250 g ai/ha
  AMARE phytotoxicity rating: 100
[15]; 63 g ai/ha
  CHEAL phytotoxicity rating: 100
[15]; 250 g ai/ha
  CHEAL phytotoxicity rating: 100
[16]; 63 g ai/ha
  ECHCG phytotoxicity rating: 0
[16]; 250 g ai/ha
  ECHCG phytotoxicity rating: 30
[17]; 63 g ai/ha
  DIGSA phytotoxicity rating: 0
[17]; 250 g ai/ha
  DIGSA phytotoxicity rating: 10
[18]; 63 g ai/ha
  IPOHE phytotoxicity rating: 100
[18]; 250 g ai/ha
  IPOHE phytotoxicity rating: 90
[19]; 63 g ai/ha
  phytotoxicity rating AMARE: 100
[19]; 250 g ai/ha
  phytotoxicity rating AMARE: 100
[20]; 63 g ai/ha
  CORN phytotoxicity rating (crop damage): 10
[20]; 250 g ai/ha
  CORN phytotoxicity rating (crop damage): 60
[21]; 63 g ai/ha
  RICE phytotoxicity rating (crop damage): 10
[21]; 250 g ai/ha
  RICE phytotoxicity rating (crop damage): 70

## Cn1c(C(F)(F)F)cc(=O)n(-c2ccc(C#N)cc2NC(=O)c2ccc3ccccc3c2)c1=O [2-140]
[1]; 63 g ai/ha
  phytotoxicity rating CORN (crop damage): 0
[1]; 250 g ai/ha
  phytotoxicity rating CORN (crop damage): 15
[2]; 63 g ai/ha
  phytotoxicity rating RICE (crop damage): 30
[2]; 250 g ai/ha
  phytotoxicity rating RICE (crop damage): 85
[3]; 63 g ai/ha
  phytotoxicity rating SETVI: 50
[3]; 250 g ai/ha
  phytotoxicity rating SETVI: 80
[4]; 63 g ai/ha
  phytotoxicity rating SORHA: 10
[4]; 250 g ai/ha
  phytotoxicity rating SORHA: 60
[5]; 63 g ai/ha
  phytotoxicity rating CASOB: 40
[5]; 250 g ai/ha
  phytotoxicity rating CASOB: 100
[6]; 63 g ai/ha
  phytotoxicity rating ABUTH: 100
[6]; 250 g ai/ha
  phytotoxicity rating ABUTH: 100
[7]; 63 g ai/ha
  phytotoxicity rating CHEAL: 100
[7]; 250 g ai/ha
  phytotoxicity rating CHEAL: 100
[8]; 63 g ai/ha
  phytotoxicity rating ECHCG: 40
[8]; 250 g ai/ha
  phytotoxicity rating ECHCG: 80
[9]; 63 g ai/ha
  phytotoxicity rating DIGSA: 40
[9]; 250 g ai/ha
  phytotoxicity rating DIGSA: 95
[10]; 63 g ai/ha
  phytotoxicity rating IPOHE: 10
[10]; 250 g ai/ha
  phytotoxicity rating IPOHE: 100
[11]; 63 g ai/ha
  SETVI phytotoxicity rating: 40
[11]; 250 g ai/ha
  SETVI phytotoxicity rating: 60
[12]; 63 g ai/ha
  CASOB phytotoxicity rating: 100
[12]; 250 g ai/ha
  CASOB phytotoxicity rating: 100
[13]; 63 g ai/ha
  ABUTH phytotoxicity rating: 100
[13]; 250 g ai/ha
  ABUTH phytotoxicity rating: 100
[14]; 63 g ai/ha
  AMARE phytotoxicity rating: 100
[14]; 250 g ai/ha
  AMARE phytotoxicity rating: 100
[15]; 63 g ai/ha
  CHEAL phytotoxicity rating: 100
[15]; 250 g ai/ha
  CHEAL phytotoxicity rating: 100
[16]; 63 g ai/ha
  ECHCG phytotoxicity rating: 30
[16]; 250 g ai/ha
  ECHCG phytotoxicity rating: 85
[17]; 63 g ai/ha
  DIGSA phytotoxicity rating: 20
[17]; 250 g ai/ha
  DIGSA phytotoxicity rating: 65
[18]; 63 g ai/ha
  IPOHE phytotoxicity rating: 100
[18]; 250 g ai/ha
  IPOHE phytotoxicity rating: 100
[19]; 63 g ai/ha
  phytotoxicity rating AMARE: 100
[19]; 250 g ai/ha
  phytotoxicity rating AMARE: 100
[20]; 63 g ai/ha
  CORN phytotoxicity rating (crop damage): 10
[20]; 250 g ai/ha
  CORN phytotoxicity rating (crop damage): 70
[21]; 63 g ai/ha
  RICE phytotoxicity rating (crop damage): 50
[21]; 250 g ai/ha
  RICE phytotoxicity rating (crop damage): 80

## Cn1c(C(F)(F)F)cc(=O)n(-c2ccccc2NC(=O)c2ccc3ccccc3c2)c1=O [2-142]
[1]; 63 g ai/ha
  phytotoxicity rating CORN (crop damage): 0
[1]; 250 g ai/ha
  phytotoxicity rating CORN (crop damage): 0
[2]; 63 g ai/ha
  phytotoxicity rating RICE (crop damage): 0
[2]; 250 g ai/ha
  phytotoxicity rating RICE (crop damage): 0
[3]; 63 g ai/ha
  phytotoxicity rating SETVI: 0
[3]; 250 g ai/ha
  phytotoxicity rating SETVI: 0
[4]; 63 g ai/ha
  phytotoxicity rating SORHA: 0
[4]; 250 g ai/ha
  phytotoxicity rating SORHA: 0
[5]; 63 g ai/ha
  phytotoxicity rating CASOB: 0
[5]; 250 g ai/ha
  phytotoxicity rating CASOB: 0
[6]; 63 g ai/ha
  phytotoxicity rating ABUTH: 0
[6]; 250 g ai/ha
  phytotoxicity rating ABUTH: 0
[7]; 63 g ai/ha
  phytotoxicity rating CHEAL: 40
[7]; 250 g ai/ha
  phytotoxicity rating CHEAL: 70
[8]; 63 g ai/ha
  phytotoxicity rating ECHCG: 0
[8]; 250 g ai/ha
  phytotoxicity rating ECHCG: 0
[9]; 63 g ai/ha
  phytotoxicity rating DIGSA: 0
[9]; 250 g ai/ha
  phytotoxicity rating DIGSA: 0
[10]; 63 g ai/ha
  phytotoxicity rating IPOHE: 0
[10]; 250 g ai/ha
  phytotoxicity rating IPOHE: 0
[11]; 63 g ai/ha
  SETVI phytotoxicity rating: 0
[11]; 250 g ai/ha
  SETVI phytotoxicity rating: 0
[12]; 63 g ai/ha
  CASOB phytotoxicity rating: 0
[12]; 250 g ai/ha
  CASOB phytotoxicity rating: 10
[13]; 63 g ai/ha
  ABUTH phytotoxicity rating: 0
[13]; 250 g ai/ha
  ABUTH phytotoxicity rating: 40
[14]; 63 g ai/ha
  AMARE phytotoxicity rating: 0
[14]; 250 g ai/ha
  AMARE phytotoxicity rating: 40
[15]; 63 g ai/ha
  CHEAL phytotoxicity rating: 20
[15]; 250 g ai/ha
  CHEAL phytotoxicity rating: 60
[16]; 63 g ai/ha
  ECHCG phytotoxicity rating: 0
[16]; 250 g ai/ha
  ECHCG phytotoxicity rating: 0
[17]; 63 g ai/ha
  DIGSA phytotoxicity rating: 0
[17]; 250 g ai/ha
  DIGSA phytotoxicity rating: 0
[18]; 63 g ai/ha
  IPOHE phytotoxicity rating: 0
[18]; 250 g ai/ha
  IPOHE phytotoxicity rating: 50
[19]; 63 g ai/ha
  phytotoxicity rating AMARE: 0
[19]; 250 g ai/ha
  phytotoxicity rating AMARE: 40
[20]; 63 g ai/ha
  CORN phytotoxicity rating (crop damage): 10
[20]; 250 g ai/ha
  CORN phytotoxicity rating (crop damage): 15
[21]; 63 g ai/ha
  RICE phytotoxicity rating (crop damage): 10
[21]; 250 g ai/ha
  RICE phytotoxicity rating (crop damage): 0
